Assay [1] concerns the target T1, PHD1 (Homo sapiens, UniProt Q96KS0). The experiment in a line: PHD1 IC50 determination (LC/MS/MS, selectivity screening). The format is biochemical.
Assay [2] addresses T2, PHD3 (Homo sapiens, UniProt Q9H6Z9). In words: PHD3 IC50 determination (LC/MS/MS, selectivity screening). The format is biochemical.
Assay [3] deals with T1, PHD1. Conditions: read-out: Km for 2-OG, PHD1; 1 μM peptide, 1 mM ascorbic acid, 50 nM enzyme.
Assay [4] concerns the target T2, PHD3. Conditions: read-out: Km for 2-OG, PHD3; 1 μM peptide, 1 mM ascorbic acid, 40 nM enzyme.
The target in assay [5] is T3, FIH1 (Homo sapiens, UniProt Q9NWT6). Conditions: read-out: Km for 2-OG, FIH1; 1 μM peptide, 1 mM ascorbic acid, 15 nM enzyme.
Assay [6] concerns the target T3, FIH1. In words: FIH1 IC50 determination (LC/MS/MS, selectivity screening).
Assay [7] has as its target PHD2 (Homo sapiens, UniProt Q9GZT9). In words: Mechanism of inhibition and Ki determination at increasing 2-OG concentrations. The settings on record: for mechanism of inhibition of PHD2: IC50 increases linearly with increasing 2-OG concentration.

The values that follow come from article PMC6434079, “Time-dependent inhibition of PHD2” (Bioscience Reports, 2017).

Molecules are shown by their SMILES. Like-named read-outs stand apart in the source and are kept apart here.

T2 sequence (Q9H6Z9 whole entry): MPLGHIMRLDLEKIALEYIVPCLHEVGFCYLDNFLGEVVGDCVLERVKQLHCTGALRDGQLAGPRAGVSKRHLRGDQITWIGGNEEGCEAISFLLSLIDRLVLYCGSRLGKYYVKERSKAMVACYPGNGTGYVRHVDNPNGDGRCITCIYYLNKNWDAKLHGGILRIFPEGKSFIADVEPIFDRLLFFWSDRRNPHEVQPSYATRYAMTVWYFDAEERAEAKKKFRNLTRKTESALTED
T1 sequence (Q96KS0 163-403): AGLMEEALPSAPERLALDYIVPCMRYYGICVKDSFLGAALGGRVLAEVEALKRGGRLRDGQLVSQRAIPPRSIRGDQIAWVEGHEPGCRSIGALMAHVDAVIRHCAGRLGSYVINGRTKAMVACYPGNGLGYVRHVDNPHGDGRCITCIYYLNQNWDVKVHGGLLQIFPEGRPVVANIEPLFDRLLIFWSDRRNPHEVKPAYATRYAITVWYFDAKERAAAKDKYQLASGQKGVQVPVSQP
Chain of PHD2 (Q9GZT9 180-417): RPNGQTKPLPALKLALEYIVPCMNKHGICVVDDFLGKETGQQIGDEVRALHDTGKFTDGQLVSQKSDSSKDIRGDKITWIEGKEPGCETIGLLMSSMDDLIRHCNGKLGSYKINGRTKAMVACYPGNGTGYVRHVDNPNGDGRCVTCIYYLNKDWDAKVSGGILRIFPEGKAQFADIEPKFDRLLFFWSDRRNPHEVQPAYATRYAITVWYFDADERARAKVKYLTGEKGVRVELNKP
T3 sequence (Q9NWT6 whole entry): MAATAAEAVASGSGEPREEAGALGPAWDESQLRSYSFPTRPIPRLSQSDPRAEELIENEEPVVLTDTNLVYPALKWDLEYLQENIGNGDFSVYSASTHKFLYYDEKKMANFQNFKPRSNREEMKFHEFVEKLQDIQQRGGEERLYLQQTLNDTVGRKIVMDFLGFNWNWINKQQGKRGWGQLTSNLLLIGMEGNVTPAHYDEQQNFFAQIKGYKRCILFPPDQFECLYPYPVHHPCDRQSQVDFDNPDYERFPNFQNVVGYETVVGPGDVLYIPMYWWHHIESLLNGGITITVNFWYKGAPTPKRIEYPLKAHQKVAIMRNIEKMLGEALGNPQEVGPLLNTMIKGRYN

A word on the IC50: it is the concentration at which inhibition is half-maximal. With `CC(C)c1nn(Cc2ccc(-c3ccc(F)cc3)cc2F)c(=O)c(C(=O)NCC(=O)O)c1O` [Compound 1], the concentration for half-maximal inhibition (IC50) came to 0.003 µM in assay [1] and 13 nM in assay [2].

Broadly, the Km is the concentration of substrate that gives half-maximal velocity. With `O=C(O)CCC(=O)C(=O)O` [Compound 2-OG, 2-oxoglutarate], the Michaelis-Menten constant (Km) was determined as 310 nM in assay [3], 660 nM in assay [4] and 560 nM in assay [5].

Consider `O=C(O)c1cnn(-c2nc3cc(C(F)(F)F)c(Cl)cc3[nH]2)c1` [Compound 2], for which the IC50 in assay [1] came to 0.011 µM; in assay [2] it was 25 nM; in assay [6] it was 5.49 µM.

On to `O=C(O)CNC(=O)c1c(O)n(C2CCCCC2)c(=O)n(C2CCCCC2)c1=O` [Compound 3], for which the concentration for half-maximal inhibition (IC50) is 0.015 µM in assay [1] and 8 nM in assay [2].

As to `Cc1nc(C(=O)NCC(=O)O)c(O)c2ccc(Oc3ccccc3)cc12` [Compound 4], the results for the IC50 in assay [1], in assay [2] and in assay [6] were 0.002 µM, 5 nM and over 10 µM, respectively. In addition, in assay [7], the “mechanism of inhibition of PHD2” value is “compete with 2-OG substrate for binding at the enzyme active site”.

Take `O=C(O)CNC(=O)c1nc(Cl)c2ccccc2c1O` [Compound 5]: the concentration for half-maximal inhibition (IC50) was 0.016 µM in assay [1], 21 nM in assay [2] and over 10 µM in assay [6].

For `O=C(O)CNC(=O)C(=O)O` [Compound 6], the IC50 in assay [1] (read-out: PHD1 IC50 (μM)—60 min incubation, 60 min preincubation, 25 nM PHD1, 2 μM 2-OG) was 0.851 µM; in assay [2], 186 nM; in assay [6], 0.191 µM.

For orientation: Ki means a dissociation constant, usually derived from enzyme kinetics or from competition with a known ligand. High values mean a looser hold on the target, low ones a stronger hold on the target. Turning to `N#Cc1cn(-c2c[nH]n(-c3cc(N4CC(F)(F)C4)ncn3)c2=O)nn1` [Compound 7], the 50% inhibitory concentration (IC50) in assay [1] was 0.02 µM. In addition, the half-inhibitory concentration (IC50) in assay [2] came out at 12 nM. For the same molecule, in assay [7], the Ki is 87 nM and the “mechanism of inhibition of PHD2” value was “compete with 2-OG substrate for binding at the enzyme active site”.

In the case of `O=C(NC(c1ccccc1)c1ccccc1)c1cnc(-c2cccnn2)nc1O` [Compound 8], the IC50 in assay [1] was 0.02 µM; in assay [2] it was 25 nM; in assay [6] it was 9.77 µM.

Take `Cc1cccnc1CN1CCC2(CC1)C(=O)N(c1ccc(-c3ccccc3)cc1)c1ccccc12` [Compound 9]: the values for the IC50 in assay [1], in assay [2] and in assay [6] were 1.62 µM, 2040 nM and over 10 µM, respectively.
